Target: T1, human intracellular domain of KDR (VEGF Receptor-2) (Homo sapiens, UniProt P35968)
T1 construct: A fusion protein containing the intracellular domain (amino acids 793 to 1357) of the KDR and N-terminally tagged to GST; made in house; host or cells: Sf9 insect cells (baculovirus, pDEST20) for GST-KDR-cyt; E. coli BL21 (pGEX-4T-1) for GST-PLCγ
Assay: In vitro KDR kinase assay
Format: biochemical
Details: IC50 as molar concentration; GST-KDR-cyt, substrate phospholipase Cγ, ATP 100 μM, 30 min room temperature, time-resolved fluorometry
Protocol: The intracellular domain of the KDR receptor was used in the in vitro KDR assay. This domain contains the tyrosine kinase domain of KDR, and when expressed in Sf9 cells, this domain is constitutively active i.e. the kinase domain is phosphorylated on tyrosine residues.
The compounds to be tested were dissolved in DMSO at 10 mM, stored at −20° C. and protected from light. The maximum concentration of DMSO in the in vitro assay was 0.1%. Control samples received the same concentration of solvent as the samples treated with the test compounds.
For the kinase assays, black 96 wells MaxiSorp microtiter plates were coated by an overnight incubation with 100 μl/well of a 2.5 μg/ml solution of phospholipase Cγ in TBS buffer (40 mM Tris-HCl, pH 7.4, 20 mM Mg(C2H3O2)2, 0.02% NaN3) at 4° C. The plates were washed 3 times with TBS buffer containing 0.1% Tween-20, and the residual binding sites were masked by incubation with 1% BSA in TBS buffer containing 0.1% Tween-20 for 1 h. The plates were washed again and the test compounds were added at final concentrations up to 10 μM, together with ATP at the final concentration of 100 μM in 50 μl TBS buffer/well. Then, 50 μl of the human intracellular domain of KDR (VEGF Receptor-2) finally diluted 3000-3500 fold were added and were incubated for 30 min at room temperature. The plates were washed and 100 μl of the Europium labelled PY-20 anti-phosphotyrosine antibody (Wallac, FIN) were incubated in each well at the concentration of approximately 114 ng/ml for 2 h. Then, the plates were washed and 100 μl of enhancer solution (Wallac, FIN) were incubated in each well for 5 min in the dark. The plates were read in a Victor 1420 multilabel counter, using a Europium protocol for time-resolved fluorometry (Wallac, FIN): excitation 340 nm, emission 615 nm, sample pulse cycle 400 μs. Fluorescence was measured for 400 μs between flashes after a delay time of 400 μs. The background measured in the absence of enzyme was subtracted from all samples. The molar concentrations that inhibited 50% of the maximal enzymatic activity (IC50) were calculated from the dose-response curve, by fitting a straight line between the two concentrations immediately above and below the 50% inhibition point (i.e. by solving the equation y=a+bx).

T1 sequence (P35968 794-1356 limits assumed): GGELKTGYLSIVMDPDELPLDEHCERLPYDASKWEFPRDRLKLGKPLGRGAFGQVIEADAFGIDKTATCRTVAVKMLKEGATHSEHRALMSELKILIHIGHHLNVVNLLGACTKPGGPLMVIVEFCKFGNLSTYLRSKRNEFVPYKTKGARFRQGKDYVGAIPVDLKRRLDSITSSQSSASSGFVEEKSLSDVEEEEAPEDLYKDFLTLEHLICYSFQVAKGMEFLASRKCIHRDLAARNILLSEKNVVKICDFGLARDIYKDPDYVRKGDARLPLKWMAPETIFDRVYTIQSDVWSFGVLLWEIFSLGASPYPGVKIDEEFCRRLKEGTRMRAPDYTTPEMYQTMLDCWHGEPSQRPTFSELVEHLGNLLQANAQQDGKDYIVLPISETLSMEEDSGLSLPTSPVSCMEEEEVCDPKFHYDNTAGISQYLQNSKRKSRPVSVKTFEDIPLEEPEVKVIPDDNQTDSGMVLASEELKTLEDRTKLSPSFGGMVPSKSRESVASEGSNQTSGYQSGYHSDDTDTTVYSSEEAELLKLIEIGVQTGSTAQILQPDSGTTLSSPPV

| SMILES | IC50 |
| --- | --- |
| O=C(NOCc1cccc2ccccc12)c1ccccc1NCc1ccncc1 [Compound 100, N-(Naphthalen-1-ylmethoxy)-2-[(pyridin-4-ylmethyl)-amino]-benzamide] | 63.1 nM |
| O=C(NOCc1cc(Cl)nc(Cl)c1)c1ccccc1NCc1ccncc1 [Compound 104, N-(2,6-Dichloro-pyridin-4-ylmethoxy)-2-[(pyridin-4-ylmethyl)-amino]-benzamide] | 63.1 nM |
| O=C(NOCc1cnc(Cl)s1)c1ccccc1NCc1ccncc1 [Compound 106, N-(2-Chloro-thiazol-5-ylmethoxy)-2-[(pyridin-4-ylmethyl)-amino]-benzamide] | 50.1 nM |
| O=C(NOCc1csc(-c2ccccc2)n1)c1ccccc1NCc1ccncc1 [Compound 107, N-(2-Phenyl-thiazol-4-ylmethoxy)-2-[(pyridin-4-ylmethyl)-amino]-benzamide] | 100 nM |
| CCCc1cc(CONC(=O)c2ccccc2NCc2ccncc2)on1 [Compound 110, N-(3-Propyl-isoxazol-5-ylmethoxy)-2-[(pyridin-4-ylmethyl)-amino]-benzamide] | 79.4 nM |
| O=C(NOCc1ccc(Cl)s1)c1ccccc1NCc1ccncc1 [Compound 111, N-(5-Chloro-thiophen-2-ylmethoxy)-2-[(pyridin-4-ylmethyl)-amino]-benzamide] | 79.4 nM |
| O=C(NOCC1CCCC1)c1ccccc1NCc1ccncc1 [Compound 113, N-Cyclopentylmethoxy-2-[(pyridin-4-ylmethyl)-amino]-benzamide] | 2.51 nM |
| O=C(NOCC1CC1)c1ccccc1NCc1ccncc1 [Compound 114, N-Cyclopropylmethoxy-2-[(pyridin-4-ylmethyl)-amino]-benzamide] | 100 nM |
| CC(C)(C)CONC(=O)c1ccccc1NCc1ccncc1 [Compound 116, N-(2,2-Dimethyl-propoxy)-2-[(pyridin-4-ylmethyl)-amino]-benzamide] | 39.8 nM |
| CCC(CC)CONC(=O)c1ccccc1NCc1ccncc1 [Compound 117, N-(2-Ethyl-butoxy)-2-[(pyridin-4-ylmethyl)-amino]-benzamide] | 12.6 nM |
| CC(C)CCONC(=O)c1ccccc1NCc1ccncc1 [Compound 118, N-(3-Methyl-butoxy)-2-[(pyridin-4-ylmethyl)-amino]-benzamide] | 15.8 nM |
| O=C(NOCC1CCC1)c1ccccc1NCc1ccncc1 [Compound 119, N-Cyclobutylmethoxy-2-[(pyridin-4-ylmethyl)-amino]-benzamide] | 15.8 nM |
| O=C(NOCC1CCCCC1)c1ccccc1NCc1ccncc1 [Compound 120, N-Cyclohexylmethoxy-2-[(pyridin-4-ylmethyl)-amino]-benzamide] | 39.8 nM |
| O=C(NOCC1CCCCCC1)c1ccccc1NCc1ccncc1 [Compound 121, N-Cycloheptylmethoxy-2-[(pyridin-4-ylmethyl)-amino]-benzamide] | 50.1 nM |
| O=C(NOCC1CCCCCCC1)c1ccccc1NCc1ccncc1 [Compound 122, N-Cyclooctylmethoxy-2-[(pyridin-4-ylmethyl)-amino]-benzamide] | 7.94 nM |
| CC(ONC(=O)c1ccccc1NCc1ccncc1)C1CCCC1 (stereo not shown) [Compound 123, N-(1-Cyclopentyl-ethoxy)-2-[(pyridin-4-ylmethyl)-amino]-benzamide] | 31.6 nM |
| O=C(NOC1CCCCC1)c1ccccc1NCc1ccncc1 [Compound 124, N-Cyclohexyloxy-2-[(pyridin-4-ylmethyl)-amino]-benzamide] | 63.1 nM |
| O=C(NOCCC1CC1)c1ccccc1NCc1ccncc1 [Compound 125, N-(2-Cyclopropyl-ethoxy)-2-[(pyridin-4-ylmethyl)-amino]-benzamide] | 39.8 nM |
| O=C(NOCCC1CCCC1)c1ccccc1NCc1ccncc1 [Compound 126, N-(2-Cyclopentyl-ethoxy)-2-[(pyridin-4-ylmethyl)-amino]-benzamide] | 7.94 nM |
| O=C(NOCCCC1CCCC1)c1ccccc1NCc1ccncc1 [Compound 127, N-(3-Cyclopentyl-propoxy)-2-[(pyridin-4-ylmethyl)-amino]-benzamide] | 15.8 nM |

| SMILES | IC50 |
| --- | --- |
| O=C(NOCC1CC=CCC1)c1ccccc1NCc1ccncc1 (stereo not shown) [Compound 128, N-(Cyclohex-3-enylmethoxy)-2-[(pyridin-4-ylmethyl)-amino]-benzamide] | 15.8 nM |
| CC1CC=CCC1CONC(=O)c1ccccc1NCc1ccncc1 (stereo not shown) [Compound 129, N-(6-Methyl-cyclohex-3-enylmethoxy)-2-[(pyridin-4-ylmethyl)-amino]-benzamide] | 10 nM |
| O=C(NOC[C@H]1CC[C@H](CO)CC1)c1ccccc1NCc1ccncc1 [Compound 130, N-(trans-4-Hydroxymethyl-cyclohexylmethoxy)-2-[(pyridin-4-ylmethyl)-amino]-benzamide] | 50.1 nM |
| O=C(NOCC12CC3CC(CC(C3)C1)C2)c1ccccc1NCc1ccncc1 [Compound 132, N-(Adamantan-1-ylmethoxy)-2-[(pyridin-4-ylmethyl)-amino]-benzamide] | 100 nM |
| CC1(C)[C@H]2CC[C@@H](CONC(=O)c3ccccc3NCc3ccncc3)[C@@H]1C2 [Compound 134] | 25.1 nM |
| O=C(NOCC1CCCO1)c1ccccc1NCc1ccncc1 (stereo not shown) [Compound 135, 2-[(Pyridin-4-ylmethyl)-amino]-N-(tetrahydro-furan-2-ylmethoxy)-benzamide] | 79.4 nM |
| O=C(NOCC1CCOCC1)c1ccccc1NCc1ccncc1 [Compound 141, 2-[(Pyridin-4-ylmethyl)-amino]-N-(tetrahydro-pyran-4-ylmethoxy)-benzamide] | 50.1 nM |
| O=C(NOCC1CCCCO1)c1ccccc1NCc1ccncc1 (stereo not shown) [Compound 142, 2-[(Pyridin-4-ylmethyl)-amino]-N-(tetrahydro-pyran-2-ylmethoxy)-benzamide] | 39.8 nM |
| Cc1nc(CONC(=O)c2ccc(F)cc2NCc2ccncc2)cs1 [Compound 143, 4-Fluoro-N-(2-methyl-thiazol-4-ylmethoxy)-2-[(pyridin-4-ylmethyl)amino]-benzamide] | 100 nM |
| N#Cc1ccc(CONC(=O)c2cccnc2NCc2ccncc2)cc1 [Compound 156, N-(4-Cyano-benzyloxy)-2-[(pyridin-4-ylmethyl)-amino]-nicotinamide] | 63.1 nM |
| N#Cc1ccc(CONC(=O)c2cccnc2NCc2ccncc2)c(Cl)c1 [Compound 157, N-(2-Chloro-4-cyano-benzyloxy)-2-[(pyridin-4-ylmethyl)-amino]-nicotinamide] | 50.1 nM |
| N#Cc1ccc(CONC(=O)c2cccnc2NCc2ccncc2)c(F)c1 [Compound 158, N-(4-Cyano-2-fluoro-benzyloxy)-2-[(pyridin-4-ylmethyl)-amino]-nicotinamide] | 79.4 nM |
| O=C(NOCc1ccccc1I)c1cccnc1NCc1ccncc1 [Compound 160, N-(2-Iodo-benzyloxy)-2-[(pyridin-4-ylmethyl)-amino]-nicotinamide] | 63.1 nM |
| O=C(NOCc1ccccc1Br)c1cccnc1NCc1ccncc1 [Compound 161, N-(2-Bromo-benzyloxy)-2-[(pyridin-4-ylmethyl)-amino]-nicotinamide] | 63.1 nM |
| COc1cc(C#N)ccc1CONC(=O)c1cccnc1NCc1ccncc1 [Compound 162, N-(4-Cyano-2-methoxy-benzyloxy)-2-[(pyridin-4-ylmethyl)-amino]-nicotinamide] | 63.1 nM |
| O=C(NOCC1CCCC1)c1cccnc1NCc1ccncc1 [Compound 164, N-Cyclopentylmethoxy-2-[(pyridin-4-ylmethyl)-amino]-nicotinamide] | 7.94 nM |
| O=C(NCCCO)c1cc(CNc2ccccc2C(=O)NOCC2CCCC2)ccc1F [Compound 188, 5-[(2-Cyclopentylmethoxycarbamoyl-phenylamino)-methyl]-2-fluoro-N-(3-hydroxypropyl)-benzamide] | 79.4 nM |
| O=C(NOCc1ccc(F)cc1)c1ccccc1NCc1ccc2c(c1)CCO2 [Compound 195, 2-[(2,3-Dihydro-benzofuran-5-ylmethyl)-amino]-N-(4-fluoro-benzyloxy)-benzamide] | 79.4 nM |
| N#Cc1ccc(CONC(=O)c2ccccc2NCc2ccc3c(c2)CCO3)cc1 [Compound 196, N-(4-Cyano-benzyloxy)-2-[(2,3-dihydro-benzofuran-5-ylmethyl)-amino]-benzamide] | 79.4 nM |
| O=C(NOCc1ccccc1)c1ccccc1NCc1ccc2occc2c1 [Compound 198, 2-[(Benzofuran-5-ylmethyl)-amino]-N-benzyloxy-benzamide] | 63.1 nM |
